Reference: patent US20080161327A1, “Substituted 9-Alkyladenines and the Use Thereof” (Aderis Pharmaceuticals, Inc., priority 2005, published 2008)
Where two headings read alike, the source gives them in different places.

Assays:
[1] = biological target: T1, A1 (h) adenosine receptor (Homo sapiens, UniProt P30542); assay: Human recombinant adenosine receptor binding, A1 (h), [3H]DPCPX; details: for A1 Selectivity vs. A2A / A1 Selectivity vs. A2B / A1 Selectivity vs. A3: ratio of Ki
T1 construct: expressed in transfected cells
T1 sequence (P30542 1-326): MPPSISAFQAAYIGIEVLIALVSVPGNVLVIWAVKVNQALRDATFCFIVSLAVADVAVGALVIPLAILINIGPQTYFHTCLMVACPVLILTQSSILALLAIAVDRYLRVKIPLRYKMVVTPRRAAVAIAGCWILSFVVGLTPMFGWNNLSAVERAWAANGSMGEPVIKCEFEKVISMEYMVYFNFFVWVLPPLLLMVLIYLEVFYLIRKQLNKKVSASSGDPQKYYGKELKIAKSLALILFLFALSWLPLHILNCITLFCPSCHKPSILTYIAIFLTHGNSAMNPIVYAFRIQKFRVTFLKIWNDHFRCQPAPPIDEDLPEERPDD
Method: (§1) The compounds of the present invention were subjected to in vitro human recombinant adenosine receptor binding assays. Scintillation counting was used as the method of detection.
(§2) The IC50 values (concentration causing a half-maximal inhibition of control specific binding) and Hill coefficients (nH) were determined by non-linear regression analysis of the competition curves using Hill equation curve fitting (Motulsky, H. and Christopoulos, A., Fitting Models to Biological Data Using Linear and Nonlinear Regression, GraphPad Software Inc. (2003)).
(§3) The inhibition constants (Ki) were calculated from the Cheng Prusoff equation (Motulsky, H. and Christopoulos, A., supra).

[2] = biological target: T2, A1 (h) (agonist site) adenosine receptor (Homo sapiens, UniProt P30542); assay: Human recombinant adenosine receptor binding, A1 (h) (agonist site), [3H]CCPA; details: for Ki / IC50 / nH (Hill coefficient), A1 (h) (agonist site): [3H]CCPA, Table 5; for Ki: Cheng Prusoff
T2 construct: expressed in transfected cells
T2 sequence (P30542 1-326): T1 sequence (P30542 1-326)
Method: as §1, §2, §3

[3] = biological target: T3, A2A (h) adenosine receptor (Homo sapiens, UniProt P29274); assay: Human recombinant adenosine receptor binding, A2A (h), [3H]CGS 21680
T3 construct: expressed in transfected cells
Method: as §1, §2, §3

[4] = biological target: T4, A2B (h) adenosine receptor (Homo sapiens, UniProt P29275); assay: Human recombinant adenosine receptor binding, A2B (h), [3H]MRS 1754; details: for Ki: Table 8, read-out: Affinity Ki, A2B
T4 construct: expressed in transfected cells
T4 sequence (P29275 1-332): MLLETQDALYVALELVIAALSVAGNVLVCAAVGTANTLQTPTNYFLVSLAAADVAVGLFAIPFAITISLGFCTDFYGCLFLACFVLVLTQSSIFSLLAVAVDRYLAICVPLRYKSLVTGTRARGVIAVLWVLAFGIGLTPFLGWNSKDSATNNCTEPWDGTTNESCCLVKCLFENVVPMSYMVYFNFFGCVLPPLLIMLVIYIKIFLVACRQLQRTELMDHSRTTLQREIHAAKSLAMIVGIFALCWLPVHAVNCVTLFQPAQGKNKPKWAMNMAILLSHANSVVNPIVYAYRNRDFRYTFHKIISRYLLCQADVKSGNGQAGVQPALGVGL
Method: as §1, §2, §3

[5] = biological target: T5, A3 (h) adenosine receptor (Homo sapiens, UniProt P0DMS8); assay: Human recombinant adenosine receptor binding, A3 (h), [3H]AB-MECA; details: for Ki: Table 8, read-out: Affinity Ki, A3
T5 construct: expressed in transfected cells
T5 sequence (P0DMS8 1-318): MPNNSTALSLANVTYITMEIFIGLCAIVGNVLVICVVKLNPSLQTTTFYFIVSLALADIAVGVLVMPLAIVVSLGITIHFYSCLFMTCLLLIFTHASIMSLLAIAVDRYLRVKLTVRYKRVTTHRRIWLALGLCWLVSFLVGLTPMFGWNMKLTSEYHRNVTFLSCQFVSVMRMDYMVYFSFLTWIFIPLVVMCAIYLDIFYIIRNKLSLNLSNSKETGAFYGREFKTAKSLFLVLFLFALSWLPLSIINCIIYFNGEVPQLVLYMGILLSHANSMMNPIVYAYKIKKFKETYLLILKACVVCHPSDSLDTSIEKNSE
Method: as §1, §2, §3

[6] = biological target: T6, adenosine A1 receptors (Cavia porcellus, UniProt P47745); assay: Adenosine A1 in vitro functional test, negative inotropic response in left atria (Schild plot); format: cell-based; details: guinea pig left atria, agonist NECA or CPA, read-out: KB (antagonist dissociation constant)
T6 construct: from tissue; host or cells: guinea pig left atria
T6 sequence (P47745 1-326): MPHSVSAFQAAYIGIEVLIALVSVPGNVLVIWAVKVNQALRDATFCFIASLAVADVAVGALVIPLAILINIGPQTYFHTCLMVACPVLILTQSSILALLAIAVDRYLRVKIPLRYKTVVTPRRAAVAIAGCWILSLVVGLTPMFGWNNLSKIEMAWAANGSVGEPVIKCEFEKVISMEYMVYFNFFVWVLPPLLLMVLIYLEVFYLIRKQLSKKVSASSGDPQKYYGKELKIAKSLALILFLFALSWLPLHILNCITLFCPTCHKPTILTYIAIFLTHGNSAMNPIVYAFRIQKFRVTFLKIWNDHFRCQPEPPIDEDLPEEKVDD
Method: A1 assay—Negative inotropic response (Barrett, R. J. et al., J. Pharmacol. Exp. Ther. 265:227-236 (1993)): Guinea pig left atria were placed in organ baths filled with Krebs Henseleit solution gassed with 95% O2 and 5% CO2 and maintained at a temperature of 31° C. An initial resting tension of 1 g was placed on each tissue, which was allowed to equilibrate. Atria were stimulated electrically to produce twitch responses. A fixed concentration of the test compound was added and the tissue was allowed to equilibrate for 1 hour before cumulative additions of an adenosine agonist (either 5′-N-ethylcarboxamidoadenosine (NECA) or N^6-cyclopentyladenosine (CPA)) to generate a dose response curve. This procedure was repeated with different concentrations of test compounds to generate a family of dose response curves. Schild plots were constructed from the resultant concentration-effect curves, and KB (antagonist dissociation constant) values were obtained. The results presented in Table 9 are expressed as KB values (concentrations of test compound such that one-half of the tissue adenosine receptor population is occupied by the test compound).

[7] = Table 8, read-out: Affinity Ki, A1
[8] = [3H]DPCPX, Cheng Prusoff, Table 5, read-out: Ki, A1 (h)
[9] = Cheng Prusoff, Table 6, read-out: Ki, A2A (h)
[10] = Table 8, read-out: Affinity Ki, A2A

T3 sequence (P29274 whole entry): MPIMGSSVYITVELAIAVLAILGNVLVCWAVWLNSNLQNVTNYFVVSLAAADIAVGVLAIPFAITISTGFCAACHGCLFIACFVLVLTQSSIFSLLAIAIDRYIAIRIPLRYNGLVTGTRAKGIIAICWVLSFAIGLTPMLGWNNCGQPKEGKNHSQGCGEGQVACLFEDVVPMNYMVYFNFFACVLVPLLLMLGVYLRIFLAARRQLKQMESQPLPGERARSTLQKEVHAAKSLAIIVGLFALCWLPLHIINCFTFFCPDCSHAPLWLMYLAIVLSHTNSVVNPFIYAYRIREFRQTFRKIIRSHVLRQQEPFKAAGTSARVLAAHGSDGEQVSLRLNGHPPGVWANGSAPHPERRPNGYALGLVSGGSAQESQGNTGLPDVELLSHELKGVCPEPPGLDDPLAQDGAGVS

Ki [1, 7] [µM]	Ki [1, 8] [µM]	IC50 ([1]; [3H]DPCPX, Table 5) [µM]	nH (Hill coefficient), A1 (h) ([1]; [3H]DPCPX, Table 5)	A1 Selectivity vs. A2A ([1]; Table 8)	A1 Selectivity vs. A2B ([1]; Table 8)	A1 Selectivity vs. A3 ([1]; Table 8)	Ki [2] [µM]	IC50 [2] [µM]	nH (Hill coefficient), A1 (h) (agonist site) [2]	Ki [3, 9] [µM]	IC50 ([3]; Table 6) [µM]	nH (Hill coefficient), A2A (h) ([3]; Table 6)	Ki [3, 10] [µM]	Ki [4] [µM]	Ki [5] [µM]	Kb [6] [µM]	SMILES	also measured
0.032	0.032	0.052	0.9	81	>3000	>3000	0.085	0.21	1.3	2.6	3.2	0.8	2.6	> 100	> 100	32	CC(C)N(C)c1nc2c(NC3CC4CC3CC4OCCCS(=O)(=O)O)ncnc2n1C (single isomer, unassigned) [Compound 1 (+isomer)]	IC50 ([5]; Table 7, N.C. = not calculable, less than 25% inhibition at the highest tested concentration): > 100 µM
1.1	1.1	1.8	1.0	75	>3000	>3000	1.8	4.3	1.0	82	100	1.4	82	> 100	> 100	0.3	CC(C)N(C)c1nc2c(NC3CC4CC3CC4OCCCS(=O)(=O)O)ncnc2n1C (single isomer, unassigned) [1 (−isomer)]	–
–	–	–	–	–	–	–	–	–	–	–	–	–	–	–	–	85	CC(C)N(C)c1nc2c(N[C@H]3CC[C@H](OCCCS(=O)(=O)O)CC3)ncnc2n1C [Compound 6, N^6-[trans-4′-(^3-sulfopropoxy)cyclohexyl]-8-isopropylmethylamino-9-methyladenine]	–
–	–	–	–	–	–	–	–	–	–	–	–	–	–	–	–	–	CC(C)N(C)c1nc2c(NC3CC4CC3CC4O)[n+](C)cnc2n1C.[Cl-] (stereo not drawn) [Compound 14, N^6-(endo-5′-hydroxynorbornyl)-1-methyl-8-isopropylmethylamino-9-methyladenine chloride]	Percent Inhibition of Control Specific Binding, A1 (h) ([1]; compound at 1×10^−5M, CHO cells, [3H]DPCPX 1 nM): −1; Percent Inhibition of Control Specific Binding, A1 (h) (agonist site) ([2]; compound at 1×10^−5M, CHO cells, [3H]CCPA 1 nM): 18; Percent Inhibition of Control Specific Binding, A2A (h) ([3]; compound at 1×10^−5M, HEK-293 cells, [3H]CGS 21680 6 nM): −9; Percent Inhibition of Control Specific Binding, A2B (h) ([4]; compound at 1×10^−5M, HEK-293 cells, [3H]MRS 1754 0.5 nM): 5; Percent Inhibition of Control Specific Binding, A3 (h) ([5]; compound at 1×10^−5M, HEK-293 cells, [3H]AB-MECA 0.15 nM): 5
